Here are results for six compounds from ChEMBL document CHEMBL3132769, “Fragment growing to retain or alter the selectivity of anchored kinase hinge-binding fragments” (Medchemcomm, 2014).

Assay [1] deals with T1, Serine/threonine-protein kinase D1 (Homo sapiens) (UniProt Q15139).
T1 sequence (whole entry): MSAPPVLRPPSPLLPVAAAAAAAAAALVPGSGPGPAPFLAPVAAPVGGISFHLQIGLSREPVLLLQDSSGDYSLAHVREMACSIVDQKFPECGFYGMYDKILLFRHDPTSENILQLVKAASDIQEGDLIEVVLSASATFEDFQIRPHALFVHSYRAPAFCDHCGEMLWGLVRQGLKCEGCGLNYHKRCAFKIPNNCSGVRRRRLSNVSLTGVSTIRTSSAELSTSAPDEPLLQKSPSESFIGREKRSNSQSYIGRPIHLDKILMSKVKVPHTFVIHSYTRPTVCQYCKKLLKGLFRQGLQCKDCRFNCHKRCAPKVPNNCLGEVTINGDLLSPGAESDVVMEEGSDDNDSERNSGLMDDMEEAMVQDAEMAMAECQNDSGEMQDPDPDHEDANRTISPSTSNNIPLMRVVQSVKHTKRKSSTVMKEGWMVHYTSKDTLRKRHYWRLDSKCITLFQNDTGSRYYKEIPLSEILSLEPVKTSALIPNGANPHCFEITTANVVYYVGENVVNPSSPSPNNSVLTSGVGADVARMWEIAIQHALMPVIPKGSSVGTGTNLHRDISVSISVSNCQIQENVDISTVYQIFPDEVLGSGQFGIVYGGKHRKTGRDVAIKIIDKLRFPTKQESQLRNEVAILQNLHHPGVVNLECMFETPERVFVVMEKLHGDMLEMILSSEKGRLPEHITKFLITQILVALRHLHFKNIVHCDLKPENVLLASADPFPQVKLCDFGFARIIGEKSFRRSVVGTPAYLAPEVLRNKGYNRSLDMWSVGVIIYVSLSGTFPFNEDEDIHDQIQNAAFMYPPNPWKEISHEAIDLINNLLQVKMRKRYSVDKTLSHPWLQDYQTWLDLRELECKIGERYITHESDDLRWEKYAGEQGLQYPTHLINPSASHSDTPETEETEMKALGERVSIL
The assay can be described thus: Inhibition of human full length PKD1 expressed in baculovirus assessed as substrate phosphorylation using fluorescence-labelled peptides as substrate at 0.1 uM after 90 mins by microfluidic peptide phosphorylation assay.

The target in assay [2] is T2, MAP kinase-activated protein kinase 5 (Homo sapiens) (UniProt Q8IW41).
T2 sequence (whole entry): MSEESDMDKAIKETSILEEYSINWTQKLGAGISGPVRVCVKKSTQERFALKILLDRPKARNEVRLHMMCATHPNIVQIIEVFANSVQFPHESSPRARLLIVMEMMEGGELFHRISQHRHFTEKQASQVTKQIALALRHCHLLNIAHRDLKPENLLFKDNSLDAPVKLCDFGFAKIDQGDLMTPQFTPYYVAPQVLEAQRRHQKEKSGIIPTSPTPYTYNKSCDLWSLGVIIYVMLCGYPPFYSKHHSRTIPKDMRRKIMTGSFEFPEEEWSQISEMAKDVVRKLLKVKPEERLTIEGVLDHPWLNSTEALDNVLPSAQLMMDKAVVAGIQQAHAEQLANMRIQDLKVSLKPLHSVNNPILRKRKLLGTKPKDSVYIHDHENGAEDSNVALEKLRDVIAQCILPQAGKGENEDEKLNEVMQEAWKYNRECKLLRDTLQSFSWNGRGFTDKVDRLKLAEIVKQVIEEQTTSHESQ
Kind of assay: Inhibition of human full length PRAK expressed in baculovirus assessed as substrate phosphorylation using fluorescence-labelled peptides as substrate at 95 uM after 90 mins by microfluidic peptide phosphorylation assay.

The target of assay [3] is Epidermal growth factor receptor (Homo sapiens) (UniProt P00533). Kind of assay: Inhibition of human EGFR catalytic domain expressed in baculovirus assessed as substrate phosphorylation using fluorescence-labelled peptides as substrate at 9 uM after 90 mins by microfluidic peptide phosphorylation assay.
Chain of Epidermal growth factor receptor (Homo sapiens) (P00533 whole entry, the tested form may be a part): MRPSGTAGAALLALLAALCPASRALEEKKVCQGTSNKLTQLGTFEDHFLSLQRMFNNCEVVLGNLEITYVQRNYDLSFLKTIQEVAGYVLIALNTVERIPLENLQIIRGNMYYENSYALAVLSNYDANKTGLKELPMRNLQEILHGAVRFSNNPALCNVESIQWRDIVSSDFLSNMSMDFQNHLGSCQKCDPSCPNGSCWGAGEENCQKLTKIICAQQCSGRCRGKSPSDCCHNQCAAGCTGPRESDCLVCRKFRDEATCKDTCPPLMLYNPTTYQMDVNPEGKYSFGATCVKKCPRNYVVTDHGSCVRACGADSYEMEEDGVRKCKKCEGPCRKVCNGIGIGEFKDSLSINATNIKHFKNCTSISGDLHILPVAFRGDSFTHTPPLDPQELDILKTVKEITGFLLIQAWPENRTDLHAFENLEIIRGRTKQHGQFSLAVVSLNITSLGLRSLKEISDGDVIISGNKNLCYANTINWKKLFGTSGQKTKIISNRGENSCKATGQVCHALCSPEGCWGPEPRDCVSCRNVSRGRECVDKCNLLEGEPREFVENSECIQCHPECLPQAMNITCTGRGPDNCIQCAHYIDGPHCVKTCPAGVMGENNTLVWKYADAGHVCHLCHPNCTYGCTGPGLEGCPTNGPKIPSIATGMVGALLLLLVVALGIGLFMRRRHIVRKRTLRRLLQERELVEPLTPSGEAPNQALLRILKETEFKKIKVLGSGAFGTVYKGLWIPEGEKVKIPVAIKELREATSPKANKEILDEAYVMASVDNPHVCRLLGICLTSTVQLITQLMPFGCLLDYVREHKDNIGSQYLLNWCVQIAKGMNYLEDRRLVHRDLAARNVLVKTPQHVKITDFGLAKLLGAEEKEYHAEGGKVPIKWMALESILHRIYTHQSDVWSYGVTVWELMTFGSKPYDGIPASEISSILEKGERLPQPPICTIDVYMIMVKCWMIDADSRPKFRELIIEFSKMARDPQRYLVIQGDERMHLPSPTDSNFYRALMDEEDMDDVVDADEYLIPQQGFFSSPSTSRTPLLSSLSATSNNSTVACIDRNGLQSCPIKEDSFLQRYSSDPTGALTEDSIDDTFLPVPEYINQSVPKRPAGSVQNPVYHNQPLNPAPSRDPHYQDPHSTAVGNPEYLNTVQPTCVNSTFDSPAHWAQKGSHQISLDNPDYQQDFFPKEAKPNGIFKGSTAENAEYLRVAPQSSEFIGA
For assay [4], the target named is T3, Serine/threonine-protein kinase D3 (Homo sapiens) (UniProt O94806).
T3 sequence (whole entry): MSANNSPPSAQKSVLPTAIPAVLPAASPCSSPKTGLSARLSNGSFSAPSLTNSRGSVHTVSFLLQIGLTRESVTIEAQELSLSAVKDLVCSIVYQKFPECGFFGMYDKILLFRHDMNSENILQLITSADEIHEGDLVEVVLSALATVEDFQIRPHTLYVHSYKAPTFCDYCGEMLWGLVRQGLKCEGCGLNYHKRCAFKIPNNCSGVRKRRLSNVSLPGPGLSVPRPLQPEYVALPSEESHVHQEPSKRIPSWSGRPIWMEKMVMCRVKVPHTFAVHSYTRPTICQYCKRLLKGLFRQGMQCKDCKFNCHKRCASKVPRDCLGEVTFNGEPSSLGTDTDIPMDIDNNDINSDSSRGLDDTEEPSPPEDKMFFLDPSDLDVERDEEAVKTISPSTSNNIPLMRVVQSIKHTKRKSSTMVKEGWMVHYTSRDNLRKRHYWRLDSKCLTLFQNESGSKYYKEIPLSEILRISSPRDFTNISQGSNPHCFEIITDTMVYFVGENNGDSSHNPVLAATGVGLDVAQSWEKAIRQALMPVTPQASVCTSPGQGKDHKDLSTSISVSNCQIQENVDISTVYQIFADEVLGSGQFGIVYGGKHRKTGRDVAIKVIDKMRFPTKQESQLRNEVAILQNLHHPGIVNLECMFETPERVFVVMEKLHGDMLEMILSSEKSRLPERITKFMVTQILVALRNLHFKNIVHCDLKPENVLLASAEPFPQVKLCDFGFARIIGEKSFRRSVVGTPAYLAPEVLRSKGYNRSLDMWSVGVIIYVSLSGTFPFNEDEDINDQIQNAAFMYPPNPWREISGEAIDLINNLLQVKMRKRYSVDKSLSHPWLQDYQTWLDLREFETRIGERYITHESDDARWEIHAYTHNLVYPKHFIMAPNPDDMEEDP
Kind of assay: Inhibition of human full length PKD3 expressed in baculovirus assessed as substrate phosphorylation using fluorescence-labelled peptides as substrate at 1000 uM after 90 mins by microfluidic peptide phosphorylation assay.

Assay [5] has as its target Serine/threonine-protein kinase MARK1 (Homo sapiens) (UniProt Q9P0L2). Kind of assay: Inhibition of human full length MARK1 expressed in baculovirus assessed as substrate phosphorylation using fluorescence-labelled peptides as substrate at 1000 uM after 90 mins by microfluidic peptide phosphorylation assay.
Assay [6] concerns the target Mitogen-activated protein kinase 14 (Homo sapiens) (UniProt Q16539). The assay can be described thus: Inhibition of human truncated p38 alpha expressed in Escherichia coli cell assessed as substrate phosphorylation using fluorescence-labelled peptides as substrate at 1000 uM after 90 mins by microfluidic peptide phosphorylation assay.
Assay [7] deals with Fibroblast growth factor receptor 1 (Homo sapiens) (UniProt P11362). Kind of assay: Inhibition of human FGFR1 catalytic domain expressed in baculovirus assessed as substrate phosphorylation using fluorescence-labelled peptides as substrate at 0.06 uM after 90 mins by microfluidic peptide phosphorylation assay.
Chain of Fibroblast growth factor receptor 1 (Homo sapiens) (P11362 22-822 limits assumed): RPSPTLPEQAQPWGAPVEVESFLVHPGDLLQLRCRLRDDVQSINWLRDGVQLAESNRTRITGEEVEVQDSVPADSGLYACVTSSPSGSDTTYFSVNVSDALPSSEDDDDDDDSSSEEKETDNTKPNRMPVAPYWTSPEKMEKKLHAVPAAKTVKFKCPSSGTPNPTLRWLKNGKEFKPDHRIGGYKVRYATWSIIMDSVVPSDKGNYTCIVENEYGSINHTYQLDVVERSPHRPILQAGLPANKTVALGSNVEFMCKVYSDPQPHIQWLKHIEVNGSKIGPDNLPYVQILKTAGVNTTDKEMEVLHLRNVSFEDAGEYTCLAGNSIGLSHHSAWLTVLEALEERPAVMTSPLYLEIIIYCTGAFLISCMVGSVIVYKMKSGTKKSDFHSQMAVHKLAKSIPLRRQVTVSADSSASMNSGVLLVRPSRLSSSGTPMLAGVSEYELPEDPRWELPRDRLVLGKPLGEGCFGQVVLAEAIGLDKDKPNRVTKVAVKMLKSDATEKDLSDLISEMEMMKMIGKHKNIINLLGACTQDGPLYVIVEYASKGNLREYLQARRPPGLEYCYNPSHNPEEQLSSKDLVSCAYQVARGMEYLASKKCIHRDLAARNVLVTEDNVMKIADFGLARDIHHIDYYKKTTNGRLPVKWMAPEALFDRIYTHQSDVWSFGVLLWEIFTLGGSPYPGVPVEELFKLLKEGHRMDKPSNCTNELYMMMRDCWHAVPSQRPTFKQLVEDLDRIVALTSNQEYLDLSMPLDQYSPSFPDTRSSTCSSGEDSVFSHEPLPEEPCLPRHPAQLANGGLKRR
Assay [8] concerns the target Ribosomal protein S6 kinase alpha-3 (Homo sapiens) (UniProt P51812). The assay can be described thus: Inhibition of human full length RSK2 expressed in baculovirus assessed as substrate phosphorylation using fluorescence-labelled peptides as substrate at 2 uM after 90 mins by microfluidic peptide phosphorylation assay.

Chain of Mitogen-activated protein kinase 14 (Homo sapiens) (Q16539 whole entry, the tested form may be a part): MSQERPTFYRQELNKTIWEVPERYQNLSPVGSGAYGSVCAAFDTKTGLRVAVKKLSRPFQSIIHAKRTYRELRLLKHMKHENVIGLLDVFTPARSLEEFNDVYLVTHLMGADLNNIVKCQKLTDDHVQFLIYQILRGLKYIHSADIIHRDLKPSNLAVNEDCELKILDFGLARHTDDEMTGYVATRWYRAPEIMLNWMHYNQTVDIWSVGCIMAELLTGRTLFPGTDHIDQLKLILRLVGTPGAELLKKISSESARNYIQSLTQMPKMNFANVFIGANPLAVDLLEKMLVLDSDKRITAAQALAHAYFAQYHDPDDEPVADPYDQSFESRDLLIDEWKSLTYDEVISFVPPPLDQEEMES
Chain of Serine/threonine-protein kinase MARK1 (Homo sapiens) (Q9P0L2 whole entry, looked up, the tested form may be a part): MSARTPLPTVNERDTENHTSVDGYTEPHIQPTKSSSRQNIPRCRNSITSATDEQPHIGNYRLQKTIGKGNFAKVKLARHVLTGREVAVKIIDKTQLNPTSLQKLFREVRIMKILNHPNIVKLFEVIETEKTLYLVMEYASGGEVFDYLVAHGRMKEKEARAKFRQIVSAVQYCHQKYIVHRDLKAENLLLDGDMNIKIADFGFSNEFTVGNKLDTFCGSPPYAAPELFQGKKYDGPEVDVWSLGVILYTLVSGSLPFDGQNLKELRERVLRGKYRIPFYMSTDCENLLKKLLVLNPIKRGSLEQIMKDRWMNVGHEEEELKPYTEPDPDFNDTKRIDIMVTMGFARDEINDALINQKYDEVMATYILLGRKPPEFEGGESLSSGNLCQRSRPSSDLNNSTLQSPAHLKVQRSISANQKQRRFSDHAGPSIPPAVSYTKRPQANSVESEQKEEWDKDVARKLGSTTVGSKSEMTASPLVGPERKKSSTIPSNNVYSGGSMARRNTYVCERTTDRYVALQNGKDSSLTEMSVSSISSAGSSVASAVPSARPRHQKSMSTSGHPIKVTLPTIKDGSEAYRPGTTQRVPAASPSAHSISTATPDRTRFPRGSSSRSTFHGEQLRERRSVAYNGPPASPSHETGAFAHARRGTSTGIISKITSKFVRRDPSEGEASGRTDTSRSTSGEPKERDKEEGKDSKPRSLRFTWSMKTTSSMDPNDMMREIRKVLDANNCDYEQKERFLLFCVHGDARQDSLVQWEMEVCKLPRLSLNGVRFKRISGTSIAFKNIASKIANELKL
Chain of Ribosomal protein S6 kinase alpha-3 (Homo sapiens) (P51812 whole entry): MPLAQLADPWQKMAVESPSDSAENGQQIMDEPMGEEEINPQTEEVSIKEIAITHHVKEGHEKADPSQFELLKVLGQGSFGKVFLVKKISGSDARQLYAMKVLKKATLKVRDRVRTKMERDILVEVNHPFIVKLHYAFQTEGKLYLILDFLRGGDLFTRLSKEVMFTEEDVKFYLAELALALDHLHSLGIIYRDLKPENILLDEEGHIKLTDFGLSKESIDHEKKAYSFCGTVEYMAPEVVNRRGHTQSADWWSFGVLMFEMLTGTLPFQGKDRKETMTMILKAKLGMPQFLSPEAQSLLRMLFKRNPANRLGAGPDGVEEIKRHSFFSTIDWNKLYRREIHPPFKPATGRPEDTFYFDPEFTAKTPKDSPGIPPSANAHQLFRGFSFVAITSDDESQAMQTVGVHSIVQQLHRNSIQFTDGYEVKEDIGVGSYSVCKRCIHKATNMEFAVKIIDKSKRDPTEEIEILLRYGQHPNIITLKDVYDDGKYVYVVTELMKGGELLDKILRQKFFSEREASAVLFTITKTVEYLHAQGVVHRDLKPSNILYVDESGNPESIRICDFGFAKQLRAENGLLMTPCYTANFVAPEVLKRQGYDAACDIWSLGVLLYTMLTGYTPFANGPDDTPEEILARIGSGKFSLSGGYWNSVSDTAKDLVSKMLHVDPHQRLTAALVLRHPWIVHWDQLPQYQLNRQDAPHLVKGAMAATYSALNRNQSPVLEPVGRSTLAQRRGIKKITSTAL

`C[C@H](CN(C)C)Oc1nc(Nc2cc3cccc(Cl)c3cn2)cnc1C#N`: the inhibition (commonly the change of the read-out against control, counted positive when it falls) in assay [1] stood at 5%.

As for `NCCc1ccc(-c2ncnc3[nH]cnc23)cc1`, the inhibition in assay [2] turned out to be 35%.

For the compound `NCC1CN(c2ncnc3[nH]c4cnccc4c23)CCO1` (stereo not drawn), the inhibition in assay [3] was determined as 12%. With `c1cnc2[nH]ccc2c1`, the inhibition in assay [4] worked out at 62.5%; in assay [5], 93.5%; in assay [6] it was 0%. On to `NC1(Cc2ccc(Cl)cc2)CCN(c2ncnc3[nH]ccc23)CC1`, for which, in assay [7], the inhibition turned out to be 0%. Take `NC1CCN(c2ncnc3[nH]ccc23)CC1`: the inhibition in assay [8] amounted to 2%.
